Data reported in patent publication US20050003455A1, “Remedies for heart diseases” (priority 2001, published 2005).

How the values were obtained:
[1] = test system: primary cultures of rat myocardial cells; test: Staurosporine-induced decrease in cell viability (WST-8) in primary cultures of rat myocardial cells; assay type: cell-based; conditions: for cytotoxicity induced in cultured myocardial cells: 1 μM staurosporine, HCO3−-free culture medium versus ordinary culture medium
Excerpt: The myocardial cells used in the experiments were those of primary cultures from rats. In order to prepare primary cultures of myocardial cells, heart was excised from SD rats at day 20 of pregnancy (purchased from Japan SLC Co., Ltd.) and enzyme-digested with collagenase (Worthington Biochemical Corp.) and trypsin (GIBCO BRL, Gaithersberg, Md.) to isolate myocardial cells and make a cell suspension of them. As an ordinary culture medium, D-MEM supplemented with fetal bovine serum (FBS) to give a concentration of 10% (GIBCO BRL, Gaithersberg, Md.) was employed. For checking to see if Cl^−/HCO3^− anion exchangers (AEs) would be involved in apoptosis in cardiovascular cells and in protection from it, Leibovitz's L-15 Medium supplemented with FBS to give a concentration of 10% (GIBCO BRL, Gaithersberg, Md.) was employed as an HCO3^−-free culture medium and the result from it was compared with the result from the ordinary culture medium. The HCO3^−-free culture medium was employed in order to suppress the function of the Cl^−/HCO3^− anion exchangers by depleting HCO3^−. The Cl^−/HCO3^− anion exchangers are widely distributed in erythrocytes and other tissues, AE1 being expressed primarily in erythrocytes and AE3 in myocardial cells and neurons. By coupling the exclusion of intracellular Cl^− to the outside of cells and intake of extracellular HCO3^− into the cells, the exchangers function as an intracellular Cl^− and pH regulating system and they also work as a cell volume regulating system during regulatory volume increase (RVI). In a pathological context, it is speculated that the exchangers participate in the process of myocardial cells' acidification which accompanies ischemia.
A suspension of myocardial cells at a density of 3-5×10^5 cells/mL was dispensed in 24-well multiwell plates (Falcon) in an amount of 0.5 mL per well, or in 96-well multiwell plates (Falcon) in an amount of 0.1 mL per well, or in 12-well multiwell plates (Falcon) in an mount of 1 mL per well. The plates were placed in a CO2 incubator and cultured in 5% CO2 at 37° C. for 2-3 days. The thus cultured cells were used in subsequent experiments.
A control group consisted of three culture media, a cell-free medium (blank), a cell-containing medium alone (D-MEM) and 0.3% DMSO [D-MEM supplemented with 0.3% DMSO (DOJINDO LABORATORIES, Kumamoto, Japan)]. A test group consisted of three culture media containing a drug or drugs under specified conditions, i.e., a solution of 1 μM staurosporine (Sigma) dissolved in 0.3% DMSO, a mixed solution of the 1 μM staurosporine and 125-1000 μM SITS (SIGMA CHEMICAL Co., St. Louis, Mo., USA), and a mixed solution of the 1 μM staurosporine and 62.5-250 μM DIDS (SIGMA CHEMICAL Co., St. Louis, Mo., USA); the culture media of the test group are hereunder referred to as “conditioned culture media”.
Specifically, after aspirating away a culture medium, a fresh medium of the control group or a conditioned culture medium of interest was added in 24-well multiwell plates in an amount of 0.5 mL/well. After adding the conditioned culture medium, the plates were placed in a CO2 incubator and cultured in 5% CO2 at 37° C. for 2-4 hours. When a conditioned culture medium based on the HCO3^−-free culture medium was added, the plates were placed in an atmospheric incubator and cultured at 37° C. […]

[2] = test system: caspase-3 activity of cultured rat myocardial cells; test: Staurosporine-induced increase in caspase-3 activity of cultured myocardial cells (Caspase-3 Assay Kit, Fluorimetric; AMC formation); assay type: cell-based; conditions: 1 μM staurosporine + 250 μM DIDS, 12-well multiwell plates, FIG. 5
Protocol: The caspase-3 activity of the thus prepared cells was measured with Caspase-3 Assay Kit, Fluorimetric (SIGMA CHEMICAL, Co., St. Louis, Mo., USA).
More specifically, 12-well multiwell plates were cultured for 2 hours after adding a conditioned culture solution, which was then removed and further cultivation was effected for an appropriate period, mostly for 2 hours; thereafter, cell lysates were prepared using Caspase-3 Assay Kit, Fluorimetric; in the subsequent stage, the amount of formation of specific fluorochrome 7-amino-4-methylcoumarin (AMC) was measured by means of a fluorometric microplate reader (SPECTRA Fluor, Wako Pure Chemical Industries, Ltd., Osaka, Japan) according to the procedure of measurement with the Kit; and the amount of AMC formation was used as an index of caspase-3 activity. […]

Compound	cytotoxicity induced in cultured myocardial cells ([1]; 24-well multiwell plates, FIG. 6)	cytotoxicity induced in cultured myocardial cells ([1]; 96-well multiwell plates, FIG. 7)	suppression of the staurosporine-induced increase in caspase-3 activity [2]	suppression of the staurosporine-induced drop in cell viability ([1]; 1 μM staurosporine + 62.5, 125 or 250 μM DIDS, 24-well multiwell plates, FIG. 4)	suppression of the staurosporine-induced decrease in cell viability ([1]; HCO3−-free culture medium, 1 μM staurosporine + 62.5, 125 or 250 μM DIDS, 24-well multiwell plates, FIG. 6)	apoptosis suppressing effect on myocardial cells ([1]; overall conclusion from Examples 1-6)
CN[C@@H]1C[C@H]2O[C@@](C)([C@@H]1OC)n1c3ccccc3c3c4c(c5c6ccccc6n2c5c31)C(=O)NC4 [staurosporine]	comparable levels of cytotoxicity was induced by staurosporine	comparable levels of cytotoxicity was induced on the 96-well multiwell plates by staurosporine	–	–	–	–
O=S(=O)(O)c1cc(N=C=S)ccc1C=Cc1ccc(N=C=S)cc1S(=O)(=O)O [DIDS, 4,4′-diisothiocyanostilbene-2,2′-disulfonic acid]	–	–	suppresses the staurosporine-induced increase in caspase-3 activity	suppresses the drop in cell viability in a dose-dependent manner	suppressed the decrease in cell viability in a dose-dependent manner	exhibit the apoptosis suppressing effect on myocardial cells
